From patent US10759796B2, “CXCR4 inhibitors and uses thereof” (X4 Pharmaceuticals, Inc., priority 2016, dated 2020)

What was measured:
[1] = molecular target: Jurkat cells expressing CXCR4 (Homo sapiens (Human), UniProt P61073); assay: Chemokine (CXCL12-AF647) binding inhibition assay; conditions: CXCL12-AF647 25 ng/mL, read-out: IC50 CXCL-12 binding Jurkat
Experimental: Chemokine (CXCL12-AF647) Binding Inhibition Assay
Jurkat cells expressing CXCR4 were washed once with assay buffer (Hanks' balanced salt solution with 20 mM HEPES buffer and 0.2% bovine serum albumin, pH 7.4) and then incubated for 15 min at room temperature with the test compounds diluted in assay buffer at dose-dependent concentrations. Subsequently, CXCL12-AF647 (25 ng/mL) was added to the compound-incubated cells. The cells were incubated for 30 min at room temperature. Thereafter, the cells were washed twice in assay buffer, fixed in 1% paraformaldehyde in PBS, and analyzed on the FL4 channel of a FACSCalibur flow cytometer equipped with a 635-nm red diode laser (Becton Dickinson, San Jose, Calif., USA).
The percentages of inhibition of CXCL12-AF647 binding were calculated according to the formula: [1−((MFI−MFINC)/(MFIPC−MFINC))]×100 where MFI is the mean fluorescence intensity of the cells incubated with CXCL12-AF647 in the presence of the inhibitor, MFINC is the mean fluorescence intensity measured in the negative control (i.e., autofluorescence of unlabeled cells), and MFIPC is the mean fluorescence intensity of the positive control (i.e., cells exposed to CXCL12-AF647 alone).

in vitro = conditions: human, Caco-2, pH 7.4
Experimental: Example 28: Caco-2 Permeability Assay
The goal of this assay was to evaluate the intestinal absorption potential of drug candidates using Caco-2 cell lines.
1. Prewarm Prewarm HBSS Buffer in 37° C. water bath
2. Sonicate Take compounds from −20° C., sonicate for a few minutes (no less than 1 minute)
HBSS buffer with 0.3% DMSO and 5 μM LY: add 150 μL DMSO and 50 μL LY (5 mM) into 50 ml HBSS buffer (pH 7.4).
HBSS buffer with 0.1% DMSO and 5 μM LY: add 50 μL DMSO and 50 μL LY (5 mM) into 50 mL HBSS buffer (pH 7.4).
HBSS buffer with 0.3% DMSO: add 150 μL DMSO into 50 ml HBSS buffer (pH 7.4).
HBSS buffer with 0.1% DMSO: add 50 μL DMSO into 50 ml HBSS buffer (pH 7.4).
Receiver Solution Buffer:
Prepare HBSS buffer with 0.4% DMSO: add 200 μL DMSO into 50 ml HBSS buffer (pH 7.4).
Prepare HBSS buffer with 0.4% DMSO and 5 μM LY: add 200 μL DMSO and 50 μL LY (5 mM) into 50 ml HBSS buffer (pH 7.4).
4. Measure TEER Take cell culture plate out of incubator, wash the cell monolayers with HBSS buffer, and then measure TEER values at Rm temperature. 5. Centrifuge Centrifuge the compound solution (from step 3) at 4000 rpm for 5 min before loading to donor chambers. 6. Dosing Add solution based on the volumes listed in the following table (make sure to take extra 100 μL of donor sample for TO as Backup).
7. Apical LYT0 Samples To determine LY concentration in the apical chember, take 100 μL sample from apical chambers into an opaque plate for LYT0. 8. Prewarm Prewarm apical and basolateral plates at 37° C. for about 5 min, then begin transport by placing the apical plate onto basolateral plate. 9. Incubation Keep the plates in incubator at 37° C. for 90 min. 10. Standard Curve Preparation
For 300 μM compound solution, add 6 μL of compound stock solution into 192 μL of MeOH/H2O (1:1).
Prepare Working Solution in MeOH/H2O (1:1)
3 μL (20×)+57 μL of 0.4% DMSO HBSS+60 μL ACN with IS (Osalmid or Imipramine) - - - 120 μL (1×)
11. Transport Termination Separate the apical plate from the basolateral plate after 90-min incubation.
12. Measure LY Take 100 μL samples from basolateral plate to an opaque plate as LYT90.
13. Measure LY concentrations for LYT0 and LYT90 by Fluorometer (at excitation of 485 nm/emission of 535 nm).
Study details: Test concentration 10 μM
Test systems: Caco-2/HBSS solution
Incubation conditions: 0, 90 min at 37° C.
Sample size: Duplicates (n=2)
Bioanalytical method: LC-MS/MS
For Millicell-24 Cell Culture Plates: surface area of the membrane=0.7 cm^2, VA=0.8 mL (A-to-B) or 0.4 mL (B-to-A)
1. Papp values were calculated based on calculated concentrations.
The compound numbers correspond to the compound numbers in Table 1.

[2] = molecular target: CXCR-4 transfected U87 cell line (U87.CXCR4) (Homo sapiens (Human), UniProt P61073); assay: Intracellular CXCL-12-induced calcium mobilization assay (FLIPR); assay type: cell-based; conditions: U87.CXCR4 cells, CXCL-12 25-50 ng/mL; read-out: IC50 CXCL-12 Ca2+ flux U87.CXCR4+
Sequence of CXCR-4 transfected U87 cell line (U87.CXCR4) (P61073 whole entry): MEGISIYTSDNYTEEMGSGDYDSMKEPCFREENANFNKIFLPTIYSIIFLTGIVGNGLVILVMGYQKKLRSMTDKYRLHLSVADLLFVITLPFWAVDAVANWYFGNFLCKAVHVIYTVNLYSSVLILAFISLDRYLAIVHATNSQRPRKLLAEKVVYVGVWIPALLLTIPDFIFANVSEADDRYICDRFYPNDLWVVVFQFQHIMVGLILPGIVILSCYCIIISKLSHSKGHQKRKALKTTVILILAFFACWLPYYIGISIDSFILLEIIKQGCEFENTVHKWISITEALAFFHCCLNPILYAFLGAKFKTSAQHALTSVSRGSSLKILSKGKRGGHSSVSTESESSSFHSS
Experimental: Example 28: REGA Screening Assay
Intracellular CXCL-12-Induced Calcium Mobilization Assay
Intracellular calcium mobilization induced by chemokines or chemokine-derived peptides were evaluated using a calcium responsive fluorescent probe and a FLIPR system. The CXCR-4 transfected U87 cell line (U87.CXCR4) cells were seeded in gelatine-coated black-wall 96-well plates at 20,000 cells per well and incubated for 12 hours. Cells were then loaded with the fluorescent calcium probe Fluo-2 acetoxymethyl at 4 μM final concentration in assay buffer (Hanks' balanced salt solution with 20 mM HEPES buffer and 0.2% bovine serum albumin, pH 7.4) for 45 min at 37° C. The intracellular calcium mobilization induced by the CXCL-12 (25-50 ng/mL) was then measured at 37° C. by monitoring the fluorescence as a function of time in all the wells simultaneously using a fluorometric imaging plate reader (FLIPR Tetra, Molecular Devices).

Sequence of Jurkat cells expressing CXCR4 (P61073 whole entry): as above

Row | SMILES | IC50 [1] | Papp A→B at 90 min, 10 μM (in vitro) | Papp B→A at 90 min, 10 μM (in vitro) | efflux ratio at 90 min, 10 μM (in vitro) | IC50 [2]
1 | Cc1cccnc1[C@@H]1CCC[C@H](c2nc3ccccn3c2CN2CCOCC2)N1C [Compound I-73] | 100 to 1000 nM | 10 to 30 ×10⁻⁶ cm/s | 10 to 30 ×10⁻⁶ cm/s | 0.1 to 10 | ≥ 1000 nM
2 | CN1CC2CCC(C1)N2c1cccc2nc([C@H]3CCC[C@@H](c4ncccc4Cl)N3C)c(CO)n12 [Compound I-134] | 0.01 to 100 nM | 10 to 30 ×10⁻⁶ cm/s | 10 to 30 ×10⁻⁶ cm/s | 0.1 to 10 | 0.01 to 100 nM
3 | Cc1cccnc1[C@@H]1CCC[C@H](c2cn3c(N4CCNC5(CC5)C4)cccc3n2)N1 [Compound I-190] | 100 to 1000 nM | 0.1 to 10 ×10⁻⁶ cm/s | > 30 ×10⁻⁶ cm/s | 10 to 30 | ≥ 1000 nM
4 | CN1CCN(c2cccc3nc([C@H]4CCC[C@@H](c5ncccc5Cl)N4C)c(CO)n23)CC1 [Compound I-116] | 0.01 to 100 nM | 0.1 to 10 ×10⁻⁶ cm/s | 10 to 30 ×10⁻⁶ cm/s | 0.1 to 10 | 0.01 to 100 nM
5 | COc1cccnc1[C@@H]1CCC[C@H](c2cn3c(N4CCNC5(CC5)C4)cccc3n2)N1 [Compound I-172] | ≥ 1000 nM | 0.1 to 10 ×10⁻⁶ cm/s | > 30 ×10⁻⁶ cm/s | > 30 | ≥ 1000 nM
6 | COCc1c([C@H]2CCC[C@@H](c3ncccc3C)N2C)nc2cccc(N3CCN(C)CC3)n12 [Compound I-12] | 0.01 to 100 nM | 0.1 to 10 ×10⁻⁶ cm/s | 10 to 30 ×10⁻⁶ cm/s | 0.1 to 10 | 0.01 to 100 nM
7 | CCOCc1c([C@H]2CCC[C@@H](c3ncccc3C)N2C)nc2cccc(N3CCN(C(C)C)CC3)n12 [Compound I-57] | 0.01 to 100 nM | 0.1 to 10 ×10⁻⁶ cm/s | 10 to 30 ×10⁻⁶ cm/s | 0.1 to 10 | 0.01 to 100 nM
8 | Cc1cccnc1[C@@H]1CCC[C@H](c2cn3ccccc3n2)N1CCc1cnccn1 [Compound I-9] | 0.01 to 100 nM | 10 to 30 ×10⁻⁶ cm/s | 10 to 30 ×10⁻⁶ cm/s | 0.1 to 10 | 0.01 to 100 nM
9 | Cc1cccnc1[C@@H]1CCC[C@H](c2cn3c(CCc4ccccn4)cccc3n2)N1C [Compound I-7] | 100 to 1000 nM |  |  |  | ≥ 1000 nM
10 | Cc1cccnc1[C@@H]1CCC[C@H](c2cn3ccccc3n2)N1CCc1ccccn1 [Compound I-8] | 0.01 to 100 nM |  |  |  | 0.01 to 100 nM
11 | Cc1cccnc1[C@@H]1CCC[C@H](c2nc3ccccn3c2-c2cccnc2)N1 [Compound I-208] | ≥ 1000 nM | 10 to 30 ×10⁻⁶ cm/s | 10 to 30 ×10⁻⁶ cm/s | 0.1 to 10 | ≥ 1000 nM
12 | Cc1cccnc1[C@H]1CCC[C@@H](c2nc3ccccn3c2CCCN(C)C)N1C (stereo in doubt) [Compound I-28] | 0.01 to 100 nM | 0.1 to 10 ×10⁻⁶ cm/s | 10 to 30 ×10⁻⁶ cm/s | > 30 | 100 to 1000 nM
13 | Cc1cccnc1[C@@H]1CCC[C@H](c2cn3c(N4CCN(C5CCOCC5)CC4)cccc3n2)N1C [Compound I-53] | 0.01 to 100 nM | 0.1 to 10 ×10⁻⁶ cm/s | 10 to 30 ×10⁻⁶ cm/s | 0.1 to 10 | 100 to 1000 nM
14 | CCN1CCN(c2cccc3nc([C@H]4CCC[C@@H](c5ncccc5C)N4C)c(COC(C)C)n23)CC1 [Compound I-60] | 0.01 to 100 nM | 0.1 to 10 ×10⁻⁶ cm/s | 10 to 30 ×10⁻⁶ cm/s | 0.1 to 10 | 0.01 to 100 nM
15 | Cc1cccnc1[C@@H]1CCC[C@H](c2nc3ccccn3c2-c2ccccn2)N1 [Compound I-209] | ≥ 1000 nM |  |  |  | 
